Where “and” joins values, the source holds several entries; their conditions need not be identical. Equal values may be shown once. Read-outs that look alike come from different tables or passages of the source. Blank lines part the entries; values can stand above or below the compound they belong to.
Assays:
MCF-7TAX cells [1] = assay type: cell-based; settings: for resistance factor (IC50 for MCF-7TAX cells divided by IC50 for MCF-7 cells): 24 h drug treatment, clonogenic assay
Excerpt: (§1) Twice weekly, nonadherent (dead) cells were removed by discarding the existing medium and replacing it with fresh, drug-containing medium. […] At the end of the two-week period, all remaining viable cells were released by trypsinization, diluted 10-fold into PBS, and harvested by centrifugation. The cells were resuspended in fresh H-21 medium, with several aliquots removed for storage and future analysis. […] Nonadherent dead cells were again removed as described above and the process repeated until a drug dose was reached where all cells in the population were killed. Cells that grew at the maximally-tolerated drug concentrations were deemed to be “terminally selected”.
(§2) Thus, the concentration of valspodar used in some experiments was increased to 10 μM.
(§3) Briefly, 5 ml of H21 medium with 10% fetal bovine serum was introduced into 12 tissue culture flasks (25 cm^2 area) and each flask seeded with 2.5×10^5 cells. […] Each sample was vortexed vigorously for 10 s to ensure even distribution of cells within the viscous medium. 1.2 ml of each cellular suspension were placed into 6 well plates and incubated for a minimum of one week at 37° C./5% CO2 until large colonies of cells were visible.

MCF-7 cells [2] = assay: Clonogenic assay, drug-sensitive parental cells; settings: for IC50: Homo sapiens
MCF-7DOX cells [3] = assay type: cell-based; settings: for resistance factor (IC50 for MCF-7DOX cells divided by IC50 for MCF-7 cells): 24 h drug treatment, clonogenic assay
Excerpt: as §1, §2, §3

MCF-7TAX cells [4] = settings: 2 μM doxorubicin
procaspase-9 [5] = assay: Immunoblotting of whole cell extracts of MCF-7 cells after drug treatment; assay type: cell-based, human; settings: 24 h, 9 nM doxorubicin or 0.56 nM paclitaxel
Description: (§4) Extraction of proteins from whole cells was performed using RIPA buffer [1% Nonidet P-40, 0.5% sodium deoxycholate, 0.1% SDS, and 1 Complete™ protease inhibitor tablet (Roche Pharmaceuticals, Baie d'Urfe, QC) in 50 ml of PBS]. Prior to use, the RIPA buffer was supplemented with sodium orthovanadate and phenylmethylsulfonyl fluoride at final concentrations of 1 mM and 0.1 mg/ml, respectively. Cultured cells were grown as a monolayer and allowed to reach 70-90% confluence in 10 cm tissue culture plates. Twenty-four hours prior to extraction, some plates of cells were treated with 9 nM doxorubicin or 0.56 nM paclitaxel. After drug treatment, the medium was removed and the cells rinsed twice with PBS. All further steps were carried out on ice to minimize denaturation/proteolysis of the proteins. Chilled RIPA buffer (0.6 ml) was added to each plate, after which the cells were scraped from the plate using a Teflon tape-coated razor blade, and transferred to a 1.5 ml microfuge tube. An additional 0.3 ml of RIPA buffer was added to the plate and the resultant suspension was combined with the lysate. The sample was then passed repeatedly through a 21 gauge needle to lyse the cells and shear any DNA present. The lysates were then incubated on ice for 30 minutes, after which they were clarified by centrifugation at 15,000 g for 20 minutes at 4° C. The supernatants were then removed, mixed well, and aliquots placed in 0.5 ml microfuge tubes and stored at −80° C.
(§5) Proteins ([…]) from whole cell extracts were loaded into each lane of a 10% SDS-polyacrylamide gel, on duplicate gels. After electrophoresis, one of the gels was stained with Coomassie Brilliant Blue R to confirm that similar amounts of protein were loaded on gels. A second gel was electrophoretically transferred to a nitrocellulose membrane and the membrane incubated for one hour in blocking buffer [TBS buffer (20 mM Tris, 150 mM NaCl, pH 7.5) supplemented with 5% skim milk powder] to occupy all remaining protein-binding sites on the membrane. After blocking, the membranes were incubated for 1.5 hours at room temperature with an antibody to either caspase-3 (Santa Cruz Biotechnology, Santa Cruz, Calif., clone E-8), caspase-7 (Pharmingen Laboratories, San Diego, Calif., clone B94-1) or caspase-9 (Santa Cruz Biotechnology, Santa Cruz, Calif., clone C-17). Both antibodies were diluted 1:500 in blocking buffer containing 0.1% Tween 20. The primary antibody was then discarded and the membrane washed exhaustively with TBST (TBS buffer supplemented with 0.1% Tween 20). […]

procaspase-7 = assay: as above; assay type: cell-based, human; settings: 24 h drug treatment
Description: as §4, §5

MCF-7 cells [6] = assay: Selection of MCF-7 cells in increasing drug concentrations (maximally tolerated dose); assay type: cell-based, human; settings: 3-fold dose steps, terminally selected
Description: Twice weekly, nonadherent (dead) cells were removed by discarding the existing medium and replacing it with fresh, drug-containing medium. […] At the end of the two-week period, all remaining viable cells were released by trypsinization, diluted 10-fold into PBS, and harvested by centrifugation. The cells were resuspended in fresh H-21 medium, with several aliquots removed for storage and future analysis. The remaining cells were incubated with drug at a concentration 3-fold higher than the previous dose. Nonadherent dead cells were again removed as described above and the process repeated until a drug dose was reached where all cells in the population were killed. Cells that grew at the maximally-tolerated drug concentrations were deemed to be “terminally selected”. The maximally-tolerated drug doses during the selection process were 0.3 μM and 6.6 nM for doxorubicin and paclitaxel, respectively.

procaspase-9 [7] = assay: Doxorubicin treatment of PA1 ovarian cell line, procaspase-9 level; assay type: cell-based; settings: PA1 cells
MCF-7DOX cells [8] = assay: Cellular doxorubicin uptake by flow cytometry; settings: 2 μM doxorubicin, steady state
MCF-7DOX cells [9] = assay: [3H]-paclitaxel / [14C]-5-fluorouracil accumulation by liquid scintillation; settings: 10 nM paclitaxel, 24 hours
[10] = MCF7, read-out: IC50 (uptake concentration near the IC50)
[11] = MCF7, read-out: concentration required to kill 50% of the cells (IC50)

Structure (SMILES): O=c1[nH]cc(F)c(=O)[nH]1 [5-fluorouracil]
resistance factor (IC50 for MCF-7TAX cells divided by IC50 for MCF-7 cells) (MCF-7TAX cells [1]): 13 fold
IC50 (MCF-7 cells [2]; [10]): ~1000 nM

Structure (SMILES): N.N.[Cl][Pt][Cl] [cisplatin]
resistance factor (IC50 for MCF-7TAX cells divided by IC50 for MCF-7 cells) (MCF-7TAX cells [1]): Very little to no cross-resistance

Structure (SMILES): O=P1(N(CCCl)CCCl)NCCCO1 (stereo not shown) [cyclophosphamide]
resistance factor (IC50 for MCF-7TAX cells divided by IC50 for MCF-7 cells) (MCF-7TAX cells [1]): Very little to no cross-resistance

Structure (SMILES): CC(=O)O[C@@]12CO[C@@H]1C[C@H](O)[C@@]1(C)C(=O)[C@H](O)C3=C(C)[C@@H](OC(=O)[C@H](O)[C@@H](NC(=O)OC(C)(C)C)c4ccccc4)C[C@@](O)([C@@H](OC(=O)c4ccccc4)[C@H]21)C3(C)C [docetaxel]
resistance factor (IC50 for MCF-7TAX cells divided by IC50 for MCF-7 cells) (MCF-7TAX cells [1]): 46 fold
resistance factor (IC50 for MCF-7DOX cells divided by IC50 for MCF-7 cells) (MCF-7DOX cells [3]): 14,600 fold

Structure (SMILES): COc1cccc2c1C(=O)c1c(O)c3c(c(O)c1C2=O)C[C@@](O)(C(=O)CO)C[C@@H]3O[C@H]1C[C@H](N)[C@H](O)[C@H](C)O1 [doxorubicin, Doxorubicin]
doxorubicin uptake as percent of uptake in MCF-7 cells (MCF-7TAX cells [4]): 68.6%
effect on procaspase-9 levels (procaspase-9 [5]): elevated levels
effect on procaspase-7 levels (procaspase-7): upregulated
maximally-tolerated drug dose during the selection process (MCF-7 cells [6]): 0.3 µM
effect on procaspase-9 levels (procaspase-9 [7]): decrease in procaspase-9 levels
resistance factor (IC50 for MCF-7DOX cells divided by IC50 for MCF-7 cells) (MCF-7DOX cells [3]): 52 fold
reduction of doxorubicin accumulation compared to MCF-7 cells (MCF-7DOX cells [8]): 91.4%
IC50 (MCF-7 cells [2]; [11]): 9 nM

Structure (SMILES): C/C=C/C[C@@H](C)C(=O)[C@H]1C(=O)N[C@@H](C(C)C)C(=O)N(C)CC(=O)N(C)[C@@H](CC(C)C)C(=O)N[C@@H](C(C)C)C(=O)N(C)[C@@H](CC(C)C)C(=O)N[C@@H](C)C(=O)N[C@H](C)C(=O)N(C)[C@@H](CC(C)C)C(=O)N(C)[C@@H](CC(C)C)C(=O)N(C)[C@@H](C(C)C)C(=O)N1C [valspodar]
concentration tolerated without resulting in cell killing (MCF-7TAX cells [1]; MCF-7TAX cells): up to 10 μM
concentration tolerated without resulting in cell killing (MCF-7DOX cells [3]; MCF-7DOX cells): up to 10 μM
effect on 5-fluorouracil sensitivity (MCF-7 cells [2]; MCF-7 cells): no effect
maximum amount which could be added without inducing significant cytotoxicity (MCF-7 cells [2]; MCF-7 cells, one hour at 37° C.): Two
effect on cell viability (MCF-7 cells [2]; non-expressing MCF-7 cells, 2 μM valspodar (data not shown)): only a slight effect

The next lines start with results.

resistance factor (IC50 for MCF-7TAX cells divided by IC50 for MCF-7 cells) (MCF-7TAX cells [1]): ~13 fold
resistance factor (IC50 for MCF-7DOX cells divided by IC50 for MCF-7 cells) (MCF-7DOX cells [3]): 124 fold
Structure (SMILES): COc1cccc2c1C(=O)c1c(O)c3c(c(O)c1C2=O)C[C@@](O)(C(=O)CO)C[C@@H]3O[C@H]1C[C@H](N)[C@@H](O)[C@H](C)O1 [epirubicin]

resistance factor (IC50 for MCF-7TAX cells divided by IC50 for MCF-7 cells) (MCF-7TAX cells [1]): Very little to no cross-resistance
resistance factor (IC50 for MCF-7DOX cells divided by IC50 for MCF-7 cells) (MCF-7DOX cells [3]): 31 fold
Structure (SMILES): COc1cc([C@@H]2c3cc4c(cc3[C@@H](O[C@@H]3O[C@@H]5CO[C@@H](C)O[C@H]5[C@H](O)[C@H]3O)[C@H]3COC(=O)[C@H]23)OCO4)cc(OC)c1O [etoposide]

resistance factor (IC50 for MCF-7TAX cells divided by IC50 for MCF-7 cells) (MCF-7TAX cells [1]): Very little to no cross-resistance
Structure (SMILES): CCc1c2c(nc3ccc(OC(=O)N4CCC(N5CCCCC5)CC4)cc13)-c1cc3c(c(=O)n1C2)COC(=O)[C@]3(O)CC [irinotecan]

resistance factor (IC50 for MCF-7TAX cells divided by IC50 for MCF-7 cells) (MCF-7TAX cells [1]): Very little to no cross-resistance
Structure (SMILES): CN(Cc1cnc2nc(N)nc(N)c2n1)c1ccc(C(=O)N[C@@H](CCC(=O)O)C(=O)O)cc1 [methotrexate]

resistance factor (IC50 for MCF-7TAX cells divided by IC50 for MCF-7 cells) (MCF-7TAX cells [1]): 42 fold
resistance factor (IC50 for MCF-7DOX cells divided by IC50 for MCF-7 cells) (MCF-7DOX cells [3]): 4,700 fold and > 4,000 fold
Structure (SMILES): CC(=O)O[C@H]1C(=O)[C@@]2(C)[C@H]([C@H](OC(=O)c3ccccc3)[C@]3(O)C[C@H](OC(=O)[C@H](O)[C@@H](NC(=O)c4ccccc4)c4ccccc4)C(C)=C1C3(C)C)[C@]1(OC(C)=O)CO[C@@H]1C[C@@H]2O [paclitaxel]
effect on procaspase-9 levels (procaspase-9 [5]): no effect
effect on procaspase-7 levels (procaspase-7): without effect
maximally-tolerated drug dose during the selection process (MCF-7 cells [6]): 0.0066 µM
paclitaxel accumulated as percent of that in MCF-7 cells (MCF-7DOX cells [9]): 2.5%
IC50 (MCF-7 cells [2]; [10]): ~10 nM
IC50 (MCF-7 cells [2]; [11]): 0.56 nM

resistance factor (IC50 for MCF-7DOX cells divided by IC50 for MCF-7 cells) (MCF-7DOX cells [3]): approximately 4600 fold
Structure (SMILES): CC[C@]1(O)C[C@@H]2CN(CCc3c([nH]c4ccccc34)[C@@](C(=O)OC)(c3cc4c(cc3OC)N(C)[C@H]3[C@@](O)(C(=O)OC)[C@H](OC(C)=O)[C@]5(CC)C=CCN6CC[C@]43[C@@H]65)C2)C1 [vinblastine, Vinblastine]
